This passage reports IC50 results from patent publication US10183950B2, “Thienopyrimidine inhibitors of atypical protein kinase C” (Cancer Research Technology Limited, priority 2011, dated 2019).

By IC50 is commonly meant the concentration needed to halve the response being measured.

For one experiment, the target named is T1, full-length human PKCι (Homo sapiens, UniProt P41743).
T1 construct: Recombinant, full-length human PKCι expressed in Sf21 insect cells is also commercially available; purchased; host or cells: Sf21 insect cells
T1 sequence (P41743 1-596): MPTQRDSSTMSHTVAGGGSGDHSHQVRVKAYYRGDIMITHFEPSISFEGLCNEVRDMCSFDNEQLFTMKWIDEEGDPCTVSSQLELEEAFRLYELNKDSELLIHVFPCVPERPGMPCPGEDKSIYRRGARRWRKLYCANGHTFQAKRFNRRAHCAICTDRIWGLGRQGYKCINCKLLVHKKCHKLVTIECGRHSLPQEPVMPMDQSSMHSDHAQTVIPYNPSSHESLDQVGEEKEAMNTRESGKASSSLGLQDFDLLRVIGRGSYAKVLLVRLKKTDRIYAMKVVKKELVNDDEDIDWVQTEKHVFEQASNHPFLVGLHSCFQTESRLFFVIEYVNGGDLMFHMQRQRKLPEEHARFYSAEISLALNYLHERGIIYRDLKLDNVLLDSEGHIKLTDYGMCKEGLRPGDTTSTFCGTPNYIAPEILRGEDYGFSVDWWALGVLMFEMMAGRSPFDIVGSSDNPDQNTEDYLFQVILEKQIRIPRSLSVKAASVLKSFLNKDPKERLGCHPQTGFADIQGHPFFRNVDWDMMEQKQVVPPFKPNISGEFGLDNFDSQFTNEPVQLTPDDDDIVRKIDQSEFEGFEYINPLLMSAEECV
As to the kind of experiment: PKCι IC50 IMAP fluorescence polarisation assay, full-length enzyme. The note with it: enzyme form not given; no asterisk; read-out: Activity (IC50 printed as a bound, no asterisk). It counts as biochemical. A general note: Fluorescence polarisation rises when a labelled molecule tumbles more slowly, as on binding a larger partner.
For the compound `Cn1cc(-c2nc(NCCN)c3c4c(sc3n2)CCCC4)cn1` [compound 195, N*1*-[2-(1-Methyl-1H-pyrazol-4-yl)-5,6,7,8-tetrahydro-benzo[4,5]thieno[2,3-d]pyrimidin-4-yl]-ethane-1,2-diamine], the concentration for half-maximal inhibition (IC50) was > 60000 nM.

Still in this experiment, the particulars now being: full length PKCi at 15 μM ATP; read-out: IC50 in IMAP assay against full length PKCi.
Regarding `N[C@H](CNc1nc(-c2ccncc2)nc2c(C#CC3(O)CCCC3)csc12)Cc1ccccc1` [compound 528], the concentration for half-maximal inhibition (IC50) was < 100 nM.

With `CC(C)Nc1cc(-c2nc(N[C@@H]3CCNC3)c3sccc3n2)ccn1` [compound 626, [2-(2-Isopropylamino-pyridin-4-yl)-thieno[3,2-d]pyrimidin-4-yl]-(R)-pyrrolidin-3-yl-amine], the IC50 was in the range of 1000 to 10000 nM.

On to `CC(C)C#Cc1csc2c(NC[C@@H](N)Cc3ccccc3)nc(-c3ccncc3)nc12` [compound 518, (S)-N*1*-[7-(3-Methyl-but-1-ynyl)-2-pyridin-4-yl-thieno[3,2-d]pyrimidin-4-yl]-3-phenyl-propane-1,2-diamine], for which the half-maximal inhibitory concentration (IC50) is 100 to 1000 nM.

As to `COc1cnccc1-c1c(C)sc2c(NC[C@@H](N)Cc3ccccc3)nc(-c3ccncc3)nc12` [compound 456, (S)-N*1*-[7-(3-Methoxy-pyridin-4-yl)-6-methyl-2-pyridin-4-yl-thieno[3,2-d]pyrimidin-4-yl]-3-phenyl-propane-1,2-diamine], the IC50 fell in the range of 10000 to 40000 nM.

As to `CC(C)(C)c1sc2c(NC[C@@H](N)Cc3ccccc3)nc(-c3ccncc3)nc2c1-c1ccc(F)cc1` [compound 442, (S)-N*1*-[6-tert-Butyl-7-(4-fluoro-phenyl)-2-pyridin-4-yl-thieno[3,2-d]pyrimidin-4-yl]-3-phenyl-propane-1,2-diamine], the concentration for half-maximal inhibition (IC50) was 10000 to 40000 nM.

On to `CC(C)(C)c1sc2c(NC[C@@H](N)Cc3ccccc3)nc(-c3ccncc3)nc2c1-c1ccoc1` [compound 445, (S)-N*1*-(6-tert-Butyl-7-furan-3-yl-2-pyridin-4-yl-thieno[3,2-d]pyrimidin-4-yl)-3-phenyl-propane-1,2-diamine], for which the IC50 was in the range of 10000 to 40000 nM.

Turning to `Brc1csc2c(N[C@@H]3CCCNC3)nc(-c3ccncc3)nc12` [compound 343, (7-Bromo-2-pyridin-4-yl-thieno[3,2-d]pyrimidin-4-yl)-(R)-piperidin-3-yl-amine], the IC50 lay within 100 to 1000 nM.

Turning to `N[C@H](CNc1nc(-c2ccncc2)nc2c(CCC3CC3)csc12)Cc1ccccc1` [compound 563, (S)—N*1*-[7-(2-Cyclopropyl-ethyl)-2-pyridin-4-yl-thieno[3,2-d]pyrimidin-4-yl]-3-phenyl-propane-1,2-diamine], the half-inhibitory concentration (IC50) lay in the range of 1000 to 10000 nM.

Consider `C#Cc1csc2c(NC[C@@H](N)Cc3ccccc3)nc(-c3ccncc3)nc12` [compound 541, (S)-N*1*-(7-Ethynyl-2-pyridin-4-yl-thieno[3,2-d]pyrimidin-4-yl)-3-phenyl-propane-1,2-diamine], for which the concentration for half-maximal inhibition (IC50) was < 100 nM.

Regarding `CC(C)(C)c1sc2c(NC[C@@H](N)Cc3ccccc3)nc(-c3ccncc3)nc2c1-c1cccc(N)c1` [compound 444, (S)-N*1*-[7-(3-Amino-phenyl)-6-tert-butyl-2-pyridin-4-yl-thieno[3,2-d]pyrimidin-4-yl]-3-phenyl-propane-1,2-diamine], the IC50 fell in the range of 10000 to 40000 nM.

Consider `Fc1cnc(Nc2cnccn2)cc1-c1nc(N[C@@H]2CCNC2)c2sccc2n1` [compound 580, {2-[5-Fluoro-2-(pyrazin-2-ylamino)-pyridin-4-yl]-thieno[3,2-d]pyrimidin-4-yl}-(R)-pyrrolidin-3-yl-amine], for which the 50% inhibitory concentration (IC50) lay within 100 to 1000 nM.

As for `O[C@@H](CNc1cc(-c2nc(N[C@@H]3CCNC3)c3sccc3n2)ccn1)c1ccccc1` [compound 593, (R)-1-Phenyl-2-{4-[4-((R)-pyrrolidin-3-ylamino)-thieno[3,2-d]pyrimidin-2-yl]-pyridin-2-ylamino}-ethanol], the 50% inhibitory concentration (IC50) lay in the range of 1000 to 10000 nM.

On to `COCC#Cc1csc2c(NC[C@@H](N)Cc3ccccc3)nc(-c3ccncc3)nc12` [compound 400, (S)-N*1*-[7-(3-Methoxy-prop-1-ynyl)-2-pyridin-4-yl-thieno[3,2-d]pyrimidin-4-yl]-3-phenyl-propane-1,2-diamine], for which the IC50 was < 100 nM.

`Cc1sc2c(N[C@H]3CCNC3)nc(-c3ccncc3)nc2c1Br` [compound 332, (7-Bromo-6-methyl-2-pyridin-4-yl-thieno[3,2-d]pyrimidin-4-yl)-(S)-pyrrolidin-3-yl-amine]: the 50% inhibitory concentration (IC50) lay within 1000 to 10000 nM.

With `C[C@H](O)CNc1cc(-c2nc(N[C@@H]3CCNC3)c3sccc3n2)ccn1` [compound 591, (S)-1-{4-[4-((R)-Pyrrolidin-3-ylamino)-thieno[3,2-d]pyrimidin-2-yl]-pyridin-2-ylamino}-propan-2-ol], the 50% inhibitory concentration (IC50) lay in the range of 1000 to 10000 nM.

Take `Cc1c(Br)sc2c(NC[C@@H](N)Cc3ccccc3)nc(-c3ccncc3)nc12` [compound 337, (S)-N*1*-(6-Bromo-7-methyl-2-pyridin-4-yl-thieno[3,2-d]pyrimidin-4-yl)-3-phenyl-propane-1,2-diamine]: the 50% inhibitory concentration (IC50) lay within 100 to 1000 nM.

Take `CC(C)(O)C#Cc1csc2c(NC[C@@H](N)Cc3ccccc3)nc(-c3ccncc3)nc12` [compound 510, 4-[4-((S)-2-Amino-3-phenyl-propylamino)-2-pyridin-4-yl-thieno[3,2-d]pyrimidin-7-yl]-2-methyl-but-3-yn-2-ol]: the IC50 was < 100 nM.

Take `O[C@H]1CNC[C@@H]1Nc1nc(-c2ccncc2)nc2ccsc12` [compound 319, (3S,4S)-4-(2-Pyridin-4-yl-thieno[3,2-d]pyrimidin-4-ylamino)-pyrrolidin-3-ol]: the IC50 was 1000 to 10000 nM.

Turning to `CC(O)CC#Cc1csc2c(NC[C@@H](N)Cc3ccccc3)nc(-c3ccncc3)nc12` (stereo partly drawn) [compound 536, 5-[4-((S)-2-Amino-3-phenyl-propylamino)-2-pyridin-4-yl-thieno[3,2-d]pyrimidin-7-yl]-pent-4-yn-2-ol], the IC50 is < 100 nM.

In the case of `N[C@H](CNc1nc(-c2ccncc2)nc2c(-c3ccc[nH]3)csc12)Cc1ccccc1` [compound 397, (S)-3-Phenyl-N*1*-[2-pyridin-4-yl-7-(1H-pyrrol-2-yl)-thieno[3,2-d]pyrimidin-4-yl]-propane-1,2-diamine], the IC50 lay within 100 to 1000 nM.

On to `N[C@H](CNc1nc(-c2ccncc2)nc2c(-c3ccn[nH]3)csc12)Cc1ccccc1` [compound 390, (S)-3-Phenyl-N*1*-[7-(2H-pyrazol-3-yl)-2-pyridin-4-yl-thieno[3,2-d]pyrimidin-4-yl]-propane-1,2-diamine], for which the IC50 is < 100 nM.

With `C[C@@H](Nc1cc(-c2nc(N[C@@H]3CCNC3)c3sccc3n2)ccn1)c1ccccc1` [compound 586, {2-[2-((R)-1-Phenyl-ethylamino)-pyridin-4-yl]-thieno[3,2-d]pyrimidin-4-yl}-(R)-pyrrolidin-3-yl-amine], the IC50 lay within 100 to 1000 nM.

As to `c1cc(-c2nc(N[C@@H]3CCNC3)c3sccc3n2)cc(NC2CCOCC2)n1` [compound 625, (R)-Pyrrolidin-3-yl-{2-[2-(tetrahydro-pyran-4-ylamino)-pyridin-4-yl]-thieno[3,2-d]pyrimidin-4-yl}-amine], the IC50 was 10000 to 40000 nM.

The experiment is the same for the next values; noted with them: full length PKCi at 15 μM ATP; read-out: IC50 in IMAP assay against full length PKCi (Activity).
`NCCNc1nc(-c2ccncc2)nc2sc3c(c12)CCSC3` [compound 44, N*1*-(2-Pyridin-4-yl-5,8-dihydro-6H-thio-pyrano[4′,3′:4,5]thieno[2,3-d]pyrimidin-4-yl)-ethane-1,2-diamine]: the 50% inhibitory concentration (IC50) was in the range of 1000 to 10000 nM.

On to `CC1(C)CCc2c(sc3nc(-c4ccncc4)nc(NC[C@@H](N)Cc4ccccc4)c23)C1` [compound 77, (S)-N*1*-(7,7-Dimethyl-2-pyridin-4-yl-5,6,7,8-tetrahydro-benzo[4,5]thieno[2,3-d]pyrimidin-4-yl)-3-phenyl-propane-1,2-diamine], for which the IC50 lay in the range of 10000 to 40000 nM.

Take `COc1ccccc1C[C@H](N)CNc1nc(-c2ccncc2)nc2sc3c(c12)CCCC3` [compound 49, (S)-3-(2-methoxy-phenyl)-N*1*-(2-pyridin-4-yl-5,6,7,8-tetrahydro-benzo[4,5]thieno[2,3-d]pyrimidin-4-yl)-propane-1,2-diamine]: the IC50 fell in the range of 1000 to 10000 nM.

As for `COc1cccc(C[C@H](N)CNc2nc(-c3ccncc3)nc3sc4c(c23)CCCC4)c1` [compound 54, (S)-3-(3-Methoxy-phenyl)-N*1*-(2-pyridin-4-yl-5,6,7,8-tetrahydro-benzo[4,5]thieno[2,3-d]pyrimidin-4-yl)-propane-1,2-diamine], the 50% inhibitory concentration (IC50) is 1000 to 10000 nM.

Regarding `Cc1sc2c(NC[C@@H](N)Cc3ccccc3)nc(-c3ccncc3)nc2c1Br` [compound 300, (S)—N*1*-(7-bromo-6-methyl-2-pyridin-4-yl-thieno[3,2-d]pyrimidin-4-yl)-3-phenyl-propane-1,2-diamine], the IC50 was < 100 nM.

On to `N[C@@H](CNc1nc(-c2ccncc2)nc2sc3c(c12)CCC1(C3)OCCO1)Cc1ccccc1` [compound 79, (R)-3-Phenyl-N*1*-*-1,4-Dioxa-spiro[7.7]-(2-pyridin-4-yl-5,6,7,8-tetrahydro-benzo[4,5]thieno[2,3-d]pyrimidin-4-yl)-propane-1,2-diamine], for which the IC50 is 100 to 1000 nM.
